9 compounds from patent US5698522A, “6-position modified decapeptide LHRH antagonists” (Abbott Laboratories, priority 1995, dated 1997) can be followed below.

The assay deals with T1, LHRH receptor (Rattus norvegicus, UniProt P30969).
T1 construct: endogenous in cells
T1 sequence (P30969 1-327): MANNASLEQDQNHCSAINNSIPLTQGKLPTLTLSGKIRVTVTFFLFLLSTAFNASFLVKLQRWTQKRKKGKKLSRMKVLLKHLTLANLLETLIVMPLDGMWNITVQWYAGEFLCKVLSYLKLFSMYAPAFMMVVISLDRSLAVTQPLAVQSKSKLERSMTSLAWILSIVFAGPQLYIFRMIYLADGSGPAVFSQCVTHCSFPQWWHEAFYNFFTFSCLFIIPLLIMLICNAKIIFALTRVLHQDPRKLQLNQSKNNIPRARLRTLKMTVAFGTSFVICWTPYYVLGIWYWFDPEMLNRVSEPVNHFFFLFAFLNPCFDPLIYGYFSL
Kind of assay: in vitro LHRH antagonist potency (pA2) against the agonist leuprolide. Particulars: negative logarithm of the antagonist concentration which shifts the response curve produced by the agonist leuprolide to two-fold higher concentration. The assay is classed as cell-based. As for the experimental part: Representative compounds of the present invention were evaluated in in vitro tests for receptor binding (pKI) and for LHRH antagonist potency (pA2). The tests employed the methods detailed in F. Haviv, et al., J. Med. Chem., 32: 2340-2344 (1989). The receptor binding affinities (pKI) are the negative logarithms of the equilibtirum dissociation constants (pA2) are the negative logarithms of the concentration of antagonist which shift the response curve roduced by the agonist leuprolide to two-fold higher concentration. (Leuprolide is the LHRH agonist having the structure 5-oxo-Pro^1 -His^2 -Trp^3 -Ser^4 -Tyr^5 -D-Leu^6 -Leu^7 -Arg^8 -Pro^9 -NHEt and is disclosed and claimed in U.S. Pat. No. 4,005,063.) Typically pA2 values of 9.5 or greater are indicative of good LHRH antagonist potency.

Structures are written as SMILES. *1 amine or outer side, *2 acyl side, *3 side chain or, on linkers, in order; H or OH if unused. Where a SMILES comes first, the peptide text is derived from it. Side-chain parts run from the residue outwards. [ ]: non-standard residue; d: D form. The star is where a group is joined. Shikimoyl = O=C(C1=C[C@@H](O)[C@@H](O)[C@H](O)C1)*; X5 = O=C(NCCCN*)C1=C[C@@H](O)[C@@H](O)[C@H](O)C1; Biotin = O=C1N[C@H]2[C@H](CS[C@H]2CCCCC(=O)*)N1; dPhe(4-Cl) = N[C@H](Cc1ccc(Cl)cc1)C(=O)O; d2Nal = N[C@H](Cc1ccc2ccccc2c1)C(=O)O; Acetyl(3-pyridyl) = O=C(Cc1cccnc1)*; Lys(iPr) = CC(C)NCCCC[C@H](N)C(=O)O; NMeY = CN[C@@H](Cc1ccc(O)cc1)C(=O)O; d3Pal = N[C@H](Cc1cccnc1)C(=O)O; Salicyloyl = O=C(c1ccccc1O)*; Nicotinoyl = O=C(c1cccnc1)*; dOrn = NCCC[C@@H](N)C(=O)O; 2Furoyl = O=C(c1ccco1)*; CO = O=C([*:1])[*:2]; Ava = NCCCCC(=O)O; azaGly = NNC(=O)O; βAla = NCCC(=O)O; Sar = CNCC(=O)O

Usually Kb stands for the equilibrium dissociation constant of an antagonist, usually derived from a functional assay. Turning to `CC(=O)N[C@H](Cc1ccc2ccccc2c1)C(=O)N[C@H](Cc1ccc(Cl)cc1)C(=O)N[C@H](Cc1cccnc1)C(=O)N[C@@H](CO)C(=O)N(C)[C@@H](Cc1ccc(O)cc1)C(=O)N[C@H](CCCCNC(=O)CCNC(=O)CNC(=O)c1ccco1)C(=O)N[C@@H](CC(C)C)C(=O)N[C@@H](CCCCNC(C)C)C(=O)N1CCC[C@H]1C(=O)N[C@H](C)C(N)=O` [Example 57c, NAc-D2Nal^1 -D4ClPhe^2 -D3Pal^3 -Ser^4 -NMeTyr^5 -DLys(N-epsilon-beta-alanyl-glycyl-furoyl)^6 -Leu^7 -Lys(Isp)^8 -Pro^9 -DAla^10 NH2] (Ac-[d2Nal][dPhe(4-Cl)][d3Pal]S[NMeY][dK]([βAla-Gly-2Furoyl])L[Lys(iPr)]P[dA]-NH2), the antagonist equilibrium constant (Kb) is 0.0186 nM.

As for `CC(=O)N[C@H](Cc1ccc2ccccc2c1)C(=O)N[C@H](Cc1ccc(Cl)cc1)C(=O)N[C@H](Cc1cccnc1)C(=O)N[C@@H](CO)C(=O)N(C)[C@@H](Cc1ccc(O)cc1)C(=O)N[C@H](CCCCNC(=O)NNC(=O)c1ccco1)C(=O)N[C@@H](CC(C)C)C(=O)N[C@@H](CCCCNC(C)C)C(=O)N1CCC[C@H]1C(=O)N(C)CC(N)=O` [Example 59, NAc-D2Nal^1 -D4ClPhe^2 -D3Pal^3 -Ser^4 -NMeTyr^5 -DLys(N-epsilon-Azagly-Fur-2-oyl)^6 -Leu^7 -Lys(N-epsilon-Isopropyl)^8 -Pro^9 -Sar^10 NH2] (Ac-[d2Nal][dPhe(4-Cl)][d3Pal]S[NMeY][dK]([azaGly-2Furoyl])L[Lys(iPr)]P[Sar]-NH2), the Kb was 0.0363 nM.

`CC(=O)N[C@H](Cc1ccc2ccccc2c1)C(=O)N[C@H](Cc1ccc(Cl)cc1)C(=O)N[C@H](Cc1cccnc1)C(=O)N[C@@H](CO)C(=O)N(C)[C@@H](Cc1ccc(O)cc1)C(=O)N[C@H](CCCCNC(=O)CNC(=O)Cc1cccnc1)C(=O)N[C@@H](CC(C)C)C(=O)N[C@@H](CCCNC(=N)N)C(=O)N1CCC[C@H]1C(=O)N[C@H](C)C(N)=O` [Example 65c, NAc-D2Nal^1 -D4ClPhe^2 -D3Pal^3 -Ser^4 -NMeTyr^5 -DLys(N-epsilon-Gly-3Pyridylacetyl)^6 -Leu^7 -Arg^8 -Pro^9 -DAla^10 NH2] (Ac-[d2Nal][dPhe(4-Cl)][d3Pal]S[NMeY][dK]([Gly-Acetyl(3-pyridyl)])LRP[dA]-NH2): the antagonist dissociation constant (Kb) was 0.0288 nM. For the compound `CC(=O)N[C@H](Cc1ccc2ccccc2c1)C(=O)N[C@H](Cc1ccc(Cl)cc1)C(=O)N[C@H](Cc1cccnc1)C(=O)N[C@@H](CO)C(=O)N(C)[C@@H](Cc1ccc(O)cc1)C(=O)N[C@H](CCCCNC(=O)CNC(=O)CCCC[C@@H]1SC[C@@H]2NC(=O)N[C@@H]21)C(=O)N[C@@H](CC(C)C)C(=O)N[C@@H](CCCCNC(C)C)C(=O)N1CCC[C@H]1C(=O)N[C@H](C)C(N)=O` [Example 64, NAc-D2Nal^1 -D4ClPhe^2 -D3Pal^3 -Ser^4 -NMeTyr^5 -DLys(N-epsilon-Gly-Biotinyl)^6 -Leu^7 -Lys(N-epsilon-isopropyl)^8 -Pro^9 -DAla^10 NH2] (Ac-[d2Nal][dPhe(4-Cl)][d3Pal]S[NMeY][dK]([Gly-Biotin])L[Lys(iPr)]P[dA]-NH2), the Kb is 0.0115 nM. As for `CC(=O)N[C@H](Cc1ccc2ccccc2c1)C(=O)N[C@H](Cc1ccc(Cl)cc1)C(=O)N[C@H](Cc1cccnc1)C(=O)N[C@@H](CO)C(=O)N(C)[C@@H](Cc1ccc(O)cc1)C(=O)N[C@H](CCCCNC(=O)[C@@H](Cc1c[nH]cn1)NC(=O)C1=C[C@@H](O)[C@@H](O)[C@H](O)C1)C(=O)N[C@@H](CC(C)C)C(=O)N[C@@H](CCCNC(=N)N)C(=O)N1CCC[C@H]1C(=O)N[C@H](C)C(N)=O` [Example 38e, NAc-D2Nal^1 -D4ClPhe^2 -D3Pal^3 -Ser^4 -NMeTyr^5 -DLys(N-epsilon-DHis-Shikimyl)^6 -Leu^7 -Arg^8 -Pro^9 -DAla^10 NH2] (Ac-[d2Nal][dPhe(4-Cl)][d3Pal]S[NMeY][dK]([dH-Shikimoyl])LRP[dA]-NH2), the figure is 0.0437 nM.

For the compound `CC(=O)N[C@H](Cc1ccc2ccccc2c1)C(=O)N[C@H](Cc1ccc(Cl)cc1)C(=O)N[C@H](Cc1cccnc1)C(=O)N[C@@H](CO)C(=O)N(C)[C@@H](Cc1ccc(O)cc1)C(=O)N[C@H](CCCCNC(=O)NCCCNC(=O)C1=C[C@@H](O)[C@@H](O)[C@H](O)C1)C(=O)N[C@@H](CC(C)C)C(=O)N[C@@H](CCCNC(=N)N)C(=O)N1CCC[C@H]1C(=O)N[C@H](C)C(N)=O` [Example 42, NAc-D2Nal^1 -D4ClPhe^2 -D3Pal^3 -Ser^4 -NMeTyr^5 -DLys[N-epsilon-(N'-Carbonyl-Diaminopropane-N"-Shikimyl)]^6 -Leu^7 -Arg^8 -Pro^9 -DAla^10 NH2] (Ac-[d2Nal][dPhe(4-Cl)][d3Pal]S[NMeY][dK]([CO-X5])LRP[dA]-NH2), the Kb is 0.0257 nM.

As for `CC(=O)N[C@H](Cc1ccc2ccccc2c1)C(=O)N[C@H](Cc1ccc(Cl)cc1)C(=O)N[C@H](Cc1cccnc1)C(=O)N[C@@H](CO)C(=O)N(C)[C@@H](Cc1ccc(O)cc1)C(=O)N[C@H](CCCCNC(=O)CCCCNC(=O)c1cccnc1)C(=O)N[C@@H](CC(C)C)C(=O)N[C@@H](CCCCNC(C)C)C(=O)N1CCC[C@H]1C(=O)N[C@H](C)C(N)=O` [Example 43, NAc-D2Nal^1 -D4ClPhe^2 -D3Pal^3 -Ser^4 -NMeTyr^5 -DLys(N-epsilon-5-Aminovaleryl-Nicotinyl)^6 -Leu^7 -Lys(N-epsilon-Isopropyl)^8 -Pro^9 -DAla^10 NH2] (Ac-[d2Nal][dPhe(4-Cl)][d3Pal]S[NMeY][dK]([Ava-Nicotinoyl])L[Lys(iPr)]P[dA]-NH2), the Kb is 0.00851 nM. As for `CC(=O)N[C@H](Cc1ccc2ccccc2c1)C(=O)N[C@H](Cc1ccc(Cl)cc1)C(=O)N[C@H](Cc1cccnc1)C(=O)N[C@@H](CO)C(=O)N(C)[C@@H](Cc1ccc(O)cc1)C(=O)N[C@H](CCCCNC(=O)NNC(=O)c1ccccc1O)C(=O)N[C@@H](CC(C)C)C(=O)N[C@@H](CCCCNC(C)C)C(=O)N1CCC[C@H]1C(=O)N[C@H](C)C(N)=O` [Example 5c, NAc-D2Nal^1 -D4ClPhe^2 -D3Pal^3 -Ser^4 -NMeTyr^5 -DLys(N-epsilon-Azagly-Salicyl)^6 -Leu^7 -Lys(N-epsilon-Isopropyl)^8 -Pro^9 -DAla^10 NH2] (Ac-[d2Nal][dPhe(4-Cl)][d3Pal]S[NMeY][dK]([azaGly-Salicyloyl])L[Lys(iPr)]P[dA]-NH2), the figure is 0.0132 nM; as for `CC(=O)N[C@H](Cc1ccc2ccccc2c1)C(=O)N[C@H](Cc1ccc(Cl)cc1)C(=O)N[C@H](Cc1cccnc1)C(=O)N[C@@H](CO)C(=O)N(C)[C@@H](Cc1ccc(O)cc1)C(=O)N[C@H](CCCNC(=O)NNC(=O)c1ccco1)C(=O)N[C@@H](CC(C)C)C(=O)N[C@@H](CCCCNC(C)C)C(=O)N1CCC[C@H]1C(=O)N[C@H](C)C(N)=O` [Example 52, NAc-D2-Nal^1 -D4ClPhe^2 -D3Pal^3 -Ser^4 -NMeTyr^5 -DOrn(N-epsilon-Azagly-2-Furoyl)^6 -Leu^7 -Lys(N-epsilon-Isopropyl)^8 -Pro^9 -DAla^10 NH2] (Ac-[d2Nal][dPhe(4-Cl)][d3Pal]S[NMeY][dOrn]([azaGly-2Furoyl])L[Lys(iPr)]P[dA]-NH2), 0.0155 nM.
